We go through 22 compounds from ChEMBL document CHEMBL6109061, “Discovery of an Ultralong-acting Nondepolarizing Neuromuscular Blocker That Displays Short Onset Time and On-Demand Rapid Reversal by a Biocompatible Antagonist” (J Med Chem, 2025).

SMILES strings stand for the structures. The source made the active and inactive calls. The calls are words filed in the database; no cut-off is given here.

Data set [1] can be described thus: Solubility of compound in water. In kind it is physicochemical.
Data set [2] concerns Rattus norvegicus. Put plainly: Neuromuscular block activity in propofol-induced anesthetized Sprague-Dawley rat model assessed as inhibition of twitch by measuring twitch intensity of quadriceps muscle at 0.3 mg/kg, iv administered as bolus dose by TOF watch monitor analysis relative to control. The data set is classed as functional.
The test system of data set [3] is Rattus norvegicus. Put plainly: Neuromuscular block activity in propofol-induced anesthetized iv dosed Sprague-Dawley rat model assessed as minimum dose for complete neuromuscular block. The data set is classed as functional. To be noted: read-out: MED.
Data set [4] deals with Rattus norvegicus. As to the kind of experiment: Neuromuscular block activity in propofol-induced anesthetized Sprague-Dawley rat model assessed as reduction in twitch inhibition by measuring twitch intensity of quadriceps muscle at 0.3 mg/kg, iv administered as bolus dose by TOF watch monitor analysis. The data set is classed as functional, organism-based.
Data set [5] relates to Rattus norvegicus. Put plainly: Neuromuscular block activity in propofol-induced anesthetized Sprague-Dawley rat model assessed as inhibition of twitch by measuring twitch intensity of quadriceps muscle at 0.04 mg/kg, iv administered as bolus dose by TOF watch monitor analysis relative to control. The data set is classed as functional.
Data set [6] is filed under the species Rattus norvegicus. As to the kind of experiment: Recovery of Pan-induced neuromuscular block in Sprague-Dawley rat assessed as […] ratio (TOFr) <= 25% by measuring recovery time. The data set is classed as functional.
In data set [7] the test system is Rattus norvegicus. As to the kind of experiment: Neuromuscular block activity in propofol-induced anesthetized Sprague-Dawley rat model assessed as inhibition of twitch by measuring twitch intensity of quadriceps muscle at 0.5 mg/kg, iv administered as bolus dose by TOF watch monitor analysis relative to control. In kind it is functional.
Data set [8] has as its system Rattus norvegicus. Put plainly: Neuromuscular block activity in propofol-induced anesthetized Sprague-Dawley rat model assessed as inhibition of twitch by measuring twitch intensity of quadriceps muscle at 5 mg/kg, iv administered as bolus dose by TOF watch monitor analysis relative to control. The data set is classed as functional.
Data set [9] relates to Rattus norvegicus. Put plainly: Neuromuscular block activity in propofol-induced anesthetized Sprague-Dawley rat model assessed as onset time required for twitch reduction at 0.04 mg/kg, iv. In kind it is functional.
Data set [10] has as its system Rattus norvegicus. As to the kind of experiment: Neuromuscular block activity in propofol-induced anesthetized Sprague-Dawley rat model assessed as time duration of 0 to 25 percent recovery indices at 0.04 mg/kg, iv. The data set is classed as functional.
For data set [11], the system named is Rattus norvegicus. Put plainly: Neuromuscular block activity in propofol-induced anesthetized Sprague-Dawley rat model assessed as recovery time at 0.04 mg/kg, iv. The data set is classed as functional.
Data set [12] relates to Rattus norvegicus. As to the kind of experiment: Neuromuscular block activity in propofol-induced anesthetized Sprague-Dawley rat model assessed as inhibition of twitch by measuring twitch intensity of quadriceps muscle at 0.6 mg/kg, iv administered as bolus dose by TOF watch monitor analysis relative to control. The data set is classed as functional.

For the compound `[Cl-].[Cl-].[Cl-].[Cl-].c1cc2ccc1Cc1ccc(cc1)C[n+]1ccn(c1)Cc1ccc(o1)Cn1cc[n+](c1)Cc1ccc(cc1)Cc1ccc(cc1)C[n+]1ccn(c1)Cc1ccc(o1)Cn1cc[n+](c1)C2`, in [1], the solubility was not below 50 mM. Moreover, the inhibition in vivo at 0.3 mg/kg in [2] was 0%. In data set [3], the minimal effective dose came to 5 mg/kg. For the same compound, the result in data set [4] was inactive.

In turn, `Cc1n2cc[n+]1Cc1ccc(cc1)Oc1ccc(cc1)C[n+]1ccn(c1C)CCCCCn1cc[n+](c1C)Cc1ccc(cc1)Oc1ccc(cc1)C[n+]1ccn(c1C)CCCCC2.[Cl-].[Cl-].[Cl-].[Cl-]` gave a solubility in [1] not below 50 mM. In data set [5], the inhibition in vivo at 0.04 mg/kg stood at 58%.

As to `Cc1n2cc[n+]1Cc1ccc(cc1)Oc1ccc(cc1)C[n+]1ccn(c1C)Cn1cc[n+](c1C)Cc1ccc(cc1)Oc1ccc(cc1)C[n+]1ccn(c1C)C2.[Cl-].[Cl-].[Cl-].[Cl-]`, in data set [1], the solubility was not below 50 mM. Besides, the inhibition in vivo at 0.04 mg/kg in data set [5] amounted to 63%.

Turning to `[Cl-].[Cl-].[Cl-].[Cl-].c1cc2ccc1Cc1ccc(cc1)C[n+]1ccn(c1)Cc1ccc(cc1)Cn1cc[n+](c1)Cc1ccc(cc1)Cc1ccc(cc1)C[n+]1ccn(c1)Cc1ccc(cc1)Cn1cc[n+](c1)C2`, the Time in data set [6] is listed as 32 min. Also, the solubility in [1] was not below 50 mM. For the same compound, the inhibition in vivo at 0.3 mg/kg in data set [2] stood at 17%. Further, the minimal effective dose in data set [3] was found to be 1.8 mg/kg.

`Cc1n2cc[n+]1Cc1ccc(cc1)Oc1ccc(cc1)C[n+]1ccn(c1C)Cc1cccc(c1)Cn1cc[n+](c1C)Cc1ccc(cc1)Oc1ccc(cc1)C[n+]1ccn(c1C)Cc1cccc(c1)C2.[Cl-].[Cl-].[Cl-].[Cl-]` registered a solubility in data set [1] not below 50 mM. In addition, the inhibition in vivo at 0.3 mg/kg in [2] was 100%. The minimal effective dose in data set [3] was 0.1 mg/kg. Also, the inhibition in vivo at 0.04 mg/kg in data set [5] was found to be 54%.

Turning to `Cc1n2cc[n+]1Cc1cccc(c1)C[n+]1ccn(c1C)CCCn1cc[n+](c1C)Cc1cccc(c1)C[n+]1ccn(c1C)CCC2`, the inhibition in vivo at 0.04 mg/kg in [5] amounted to 0%. Also, in data set [7], the inhibition in vivo at 0.5 mg/kg came out at 11%. In data set [8], the inhibition in vivo at 5 mg/kg stood at 100%.

`[Cl-].[Cl-].[Cl-].[Cl-].c1cc2cc(c1)Cn1cc[n+](c1)Cc1ccc(cc1)Cc1ccc(cc1)C[n+]1ccn(c1)Cc1cccc(c1)Cn1cc[n+](c1)Cc1ccc(cc1)Cc1ccc(cc1)C[n+]1ccn(c1)C2`: the solubility in data set [1] was not below 50 mM. In addition, in data set [2], the inhibition in vivo at 0.3 mg/kg worked out at 15%. Besides, the minimal effective dose in [3] amounted to 2 mg/kg.

Turning to `Cc1n2cc[n+]1Cc1ccc(cc1)Oc1ccc(cc1)C[n+]1ccn(c1C)CCCCn1cc[n+](c1C)Cc1ccc(cc1)Oc1ccc(cc1)C[n+]1ccn(c1C)CCCC2.[Cl-].[Cl-].[Cl-].[Cl-]`, the solubility in data set [1] is not below 50 mM. Further, the inhibition in vivo at 0.04 mg/kg in data set [5] worked out at 100%. Moreover, the figures for the Time in data set [9], in [10] and in data set [11] were 102 s, 47 min and 16 min, respectively.

`c1c[n+]2ccc1CCCc1cc[n+](cc1)Cc1ccc(cc1)Oc1ccc(cc1)C[n+]1ccc(cc1)CCCc1cc[n+](cc1)Cc1ccc(cc1)Oc1ccc(cc1)C2`: the inhibition in vivo at 0.3 mg/kg in data set [2] was 38%. Also, in data set [5], the inhibition in vivo at 0.04 mg/kg is 0%. The inhibition in vivo at 0.6 mg/kg in data set [12] amounted to 100%.

Consider `[Cl-].[Cl-].[Cl-].[Cl-].c1cc2cc(c1)Cn1cc[n+](c1)Cc1ccc(cc1)Oc1ccc(cc1)C[n+]1ccn(c1)Cc1cccc(c1)Cn1cc[n+](c1)Cc1ccc(cc1)Oc1ccc(cc1)C[n+]1ccn(c1)C2`, for which the solubility in [1] was not below 50 mM. In data set [2], the inhibition in vivo at 0.3 mg/kg was found to be 100%. In addition, the minimal effective dose in data set [3] is 0.16 mg/kg.

In [1], `[Cl-].[Cl-].[Cl-].[Cl-].c1cc2cc(c1)Cn1cc[n+](c1)Cc1ccc(cc1)-c1ccc(cc1)C[n+]1ccn(c1)Cc1cccc(c1)Cn1cc[n+](c1)Cc1ccc(cc1)-c1ccc(cc1)C[n+]1ccn(c1)C2` had a solubility not below 50 mM. Further, the inhibition in vivo at 0.3 mg/kg in data set [2] was found to be 43%. Also, the minimal effective dose in data set [3] was found to be 0.6 mg/kg.

`O=C(O)c1cc2cc(c1)Cn1cc[n+](c1)Cc1ccc(cc1)Oc1ccc(cc1)C[n+]1ccn(c1)Cc1cc(cc(C(=O)O)c1)Cn1cc[n+](c1)Cc1ccc(cc1)Oc1ccc(cc1)C[n+]1ccn(c1)C2.[Cl-].[Cl-].[Cl-].[Cl-]` displayed a solubility in [1] not below 50 mM. Further, the inhibition in vivo at 0.3 mg/kg in [2] stood at 0%. Also, in data set [3], the minimal effective dose was 1 mg/kg. Also, the outcome in [4] was inactive.

For `[Cl-].[Cl-].[Cl-].[Cl-].c1cc2ccc1C[n+]1ccn(c1)CCCCCn1cc[n+](c1)Cc1ccc(cc1)Oc1ccc(cc1)C[n+]1ccn(c1)CCCCCn1cc[n+](c1)Cc1ccc(cc1)O2`, the solubility in data set [1] was not below 50 mM. Besides, the inhibition in vivo at 0.04 mg/kg in data set [5] turned out to be 100%. The Time in data set [9] came to 138 s; in data set [10] it was 41 min; in [11], 31 min.

Take `Cc1n2cc[n+]1Cc1ccc(cc1)Oc1ccc(cc1)C[n+]1ccn(c1C)CCCCCCCn1cc[n+](c1C)Cc1ccc(cc1)Oc1ccc(cc1)C[n+]1ccn(c1C)CCCCCCC2.[Cl-].[Cl-].[Cl-].[Cl-]`: in [1], the solubility was not below 50 mM. Besides, the inhibition in vivo at 0.04 mg/kg in data set [5] was 100%. Besides, the figures for the Time in data set [9], in data set [10] and in data set [11] were 498 s, 61 min and 18 min, respectively.

Consider `COC(=O)c1cc2cc(c1)Cn1cc[n+](c1)Cc1ccc(cc1)Oc1ccc(cc1)C[n+]1ccn(c1)Cc1cc(cc(C(=O)OC)c1)Cn1cc[n+](c1)Cc1ccc(cc1)Oc1ccc(cc1)C[n+]1ccn(c1)C2.[Cl-].[Cl-].[Cl-].[Cl-]`, for which the solubility in [1] is not below 50 mM. Further, the inhibition in vivo at 0.3 mg/kg in data set [2] came out at 50%. For the same compound, the minimal effective dose in data set [3] was 0.6 mg/kg.

The compound `[Cl-].[Cl-].[Cl-].[Cl-].c1ccc2c(c1)n1c[n+]2Cc2ccc(cc2)Oc2ccc(cc2)C[n+]2cn(c3ccccc32)CCCCCn2c[n+](c3ccccc32)Cc2ccc(cc2)Oc2ccc(cc2)C[n+]2cn(c3ccccc32)CCCCC1` gave a solubility in data set [1] of approximately 0.5 mM. In addition, the inhibition in vivo at 0.04 mg/kg in [5] amounted to 0%. In addition, in [10], the Time turned out to be 27 min.

For the compound `[Cl-].[Cl-].[Cl-].[Cl-].c1cc2ccc1Cn1cc[n+](c1)Cc1ccc(cc1)Oc1ccc(cc1)C[n+]1ccn(c1)Cc1ccc(cc1)Cn1cc[n+](c1)Cc1ccc(cc1)Oc1ccc(cc1)C[n+]1ccn(c1)C2`, the Time in [6] was 30 min. In data set [1], this compound registered a solubility not below 50 mM. Moreover, the inhibition in vivo at 0.3 mg/kg in data set [2] came out at 2%. The minimal effective dose in data set [3] came to 0.9 mg/kg.

As to `O=C(O)c1cc2cc(c1)Cn1cc[n+](c1)Cc1ccc(cc1)-c1ccc(cc1)C[n+]1ccn(c1)Cc1cc(cc(C(=O)O)c1)Cn1cc[n+](c1)Cc1ccc(cc1)-c1ccc(cc1)C[n+]1ccn(c1)C2.[Cl-].[Cl-].[Cl-].[Cl-]`, in data set [1], the solubility was not below 50 mM. In addition, in data set [2], the inhibition in vivo at 0.3 mg/kg came to 0%. The minimal effective dose in [3] was found to be 1.2 mg/kg. Moreover, in [4], the result was inactive.

`Cc1n2cc[n+]1Cc1ccc(cc1)C[n+]1ccn(c1C)CCCn1cc[n+](c1C)Cc1ccc(cc1)C[n+]1ccn(c1C)CCC2`: the inhibition in vivo at 0.04 mg/kg in [5] came out at 0%. The inhibition in vivo at 0.5 mg/kg in [7] came out at 0%. Also, the inhibition in vivo at 5 mg/kg in data set [8] came to 100%.

In data set [1], `CCc1n2cc[n+]1Cc1ccc(cc1)Oc1ccc(cc1)C[n+]1ccn(c1CC)CCCCCn1cc[n+](c1CC)Cc1ccc(cc1)Oc1ccc(cc1)C[n+]1ccn(c1CC)CCCCC2.[Cl-].[Cl-].[Cl-].[Cl-]` gave a solubility not below 50 mM. In addition, in [5], the inhibition in vivo at 0.04 mg/kg came to 100%. Moreover, the Time in [9] worked out at 222 s; in data set [11] it was 13 min.

As to `COC(=O)c1cc2cc(c1)Cn1cc[n+](c1)Cc1ccc(cc1)-c1ccc(cc1)C[n+]1ccn(c1)Cc1cc(cc(C(=O)OC)c1)Cn1cc[n+](c1)Cc1ccc(cc1)-c1ccc(cc1)C[n+]1ccn(c1)C2.[Cl-].[Cl-].[Cl-].[Cl-]`, the solubility in data set [1] is not below 50 mM. Besides, in [2], the inhibition in vivo at 0.3 mg/kg came out at 5%. Moreover, the minimal effective dose in data set [3] is 1.5 mg/kg.

Take `[Cl-].[Cl-].[Cl-].[Cl-].c1cc2ccc1Cn1cc[n+](c1)Cc1ccc(cc1)-c1ccc(cc1)C[n+]1ccn(c1)Cc1ccc(cc1)Cn1cc[n+](c1)Cc1ccc(cc1)-c1ccc(cc1)C[n+]1ccn(c1)C2`: the Time in [6] is listed as 36 min. For the same compound, in data set [1], the solubility was not below 50 mM. In addition, the inhibition in vivo at 0.3 mg/kg in [2] came to 3%. The minimal effective dose in data set [3] was found to be 1.2 mg/kg.

Usually solubility stands for how much of the substance goes into solution per volume. Lower therefore signals little dissolved substance. As a reminder, the inhibition in vivo is the drop in the measured response relative to a control, in per cent.
